Experimental data as given in patent US10806726B2, “Methods of using indazole-3-carb oxamides and their use as Wnt/B-catenin signaling pathway inhibitors” (Samumed, LLC, priority 2016, dated 2020).

Tests used:
KC/GRO in plasma = assay: Rat Tendinopathy Model (1), plasma biomarker KC/GRO; format: in vivo
Description: Fifty (50 μl) of Collagenase Type IA (10 mg/ml in PBS, pH 7.4, approximately 469 units/mg) (Catalog # C5138, Sigma, St. Louis, Mo.) was injected into the Achilles tendon of both ankles near the osteotendinous junction of male Sprague Dawley CD® IGS rats (CRL, Inc.), using insulin syringes with 28.5 G needle.
[…] […] All rats were periodically observed for any pain, illnesses or abnormalities. At various time points, blood was collected for plasma in lithium heparin coated tubes by saphenous vein bleeding. For histology, rats were euthanized using isoflurane, tendons were isolated (n=6 tendons/group), fixed in 10% buffered formalin (Catalog # SF93-4, Fisher, Pittsburgh Pa.) and H & E histology staining was performed at a secondary site (Pacific Pathology, San Diego, Calif.). For biochemical analysis, tendons were isolated (n=4 tendons/group), flash frozen in liquid nitrogen and then stored at −80° C. for subsequent biochemical analysis (not reported).
Following manufacturer's instructions, KC/GRO plasma levels were determined using the KC/GRO Immunoassay kit (Catalog#900-K57, Peprotech, Rocky Hill, N.J.). Briefly, 96-well plates were coated with the anti-rat KC/GRO capture antibody overnight and washed to remove excess antibody. Plasma samples were incubated in the coated plates for 2 hours at room temperature. Following washes to remove unbound proteins, biotinylated anti-rat KC/GRO detection antibody was added and incubated for 30 mins at room temperature. Following washes to remove unbound excess antibody, avidin-HRP was added and incubated for 30 mins at room temperature. Following washes to remove unbound Avidin-HRP, the ABTS substrate was added and the plates were read on the Cytation 3 plate reader (Biotek Inc., Winooski, Vt.) at an absorbance of 525 nm with correction at 450 nm. All samples were processed in triplicate.
In this study, a total of 64 sections were scored for Group 1 (sham injection group) and approximately 96 sections each for Group 2 (Collagenase-Vehicle), Group 3 (Collagenase-compound 175 with BA preservative) group and Group 4 (Collagenase-compound 175 without preservative). To determine statistical significance between groups, student's t-test was performed with p<0.05 considered as significant for histology scoring and biomarker assay.

[1] = tested on: primary human mesenchymal stem cells (hMSCs); assay: Tenocyte differentiation screening in hMSCs (SCXA-positive cells, 4 days); format: cell-based; conditions: 96 h, fold change over DMSO
Outline: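 Primary hMSCs at passage 3–6 were treated with compound, fixed and immunostained for SCXA, and SCXA-positive cells per well were counted by imaging. Counts were normalized to DMSO wells as fold change, averaged over triplicates, and EC50 was fitted, with high-dose values manually corrected for solubility.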

[2] = tested on: IL6 production in THP-1 cells; assay: Cytokine Production Assay, LPS-induced IL6 in THP-1 cells; format: cell-based; conditions: Homo sapiens; THP-1, LPS 500 ng/ml 22 hours, 2 independent assays; read-out: average EC50, inhibition of IL6 production
Description: THP-1 cells were cultured in basal media with 1% FBS for 24 hours before the start of the assay. THP-1 cells were plated at 6×10e^4 cells/well and treated with DMSO (vehicle control) or compound 175 at 10 μM highest test concentration and 2 to 3.5-fold serial dilutions up to 8 concentrations (10, 3.5, 1, 0.5, 0.1, 0.035, 0.01, 0.005 μM). For the TNFα assay, 50 ng/mL of LPS was added to the wells after 2 hours to induce cytokine production, and cells were incubated for 5 hours at 37° C. For the IL6 assay, 500 ng/ml of LPS was added after 2 hours and cells were incubated for 22 hours at 37° C. Plates were spun in a centrifuge for 1 minute at 10,000 rpm and supernatants were collected for ELISA. Supernatants were diluted 1:1 for the TNFα assay and 1:4 for the IL6 assay using the assay medium. ELISA was performed using Human TNF-α ELISA MAX™ Deluxe (Catalog #430204, Biolegend, San Diego, Calif.) and Human IL-6 ELISA MAX™ Deluxe (Catalog #430504, Biolegend, San Diego, Calif.) kits. […] Following several washes to remove unbound avidin-HRP, the TMB substrate was added and the plates were read on the Cytation 3 plate reader (Biotek Inc., Winooski, Vt.) at an absorbance of 450 nm with correction at 570 nm. […] Inhibition profile and EC50 was calculated using Prism 5 (GraphPad Software Inc, La Jolla, Calif., USA). […]

For COc1ccc(NC(=O)c2n[nH]c3ccc(-c4cncc(CN5CCCCC5)c4)cc23)cn1 [compound 175, N-(6-Methoxypyridin-3-yl)-5-(5-(piperidin-1-ylmethyl)pyridin-3-yl)-1H-indazole-3-carboxamide], the “plasma KC/GRO vs vehicle” value (KC/GRO in plasma; 10 mg/mL with or without BA preservative) was “significantly decreased the levels of KC/GRO in plasma”, the “Plasma KC/GRO Concentration” value (KC/GRO in plasma; Day 0, Group 3, 10 mg/mL with 0.5% BA) was 332 ± 51.3 pg/mL and the “Plasma KC/GRO Concentration” value (KC/GRO in plasma; Day 0, Group 4, 10 mg/mL without BA, with 0.5% Tween 80) was 530 ± 31.4 pg/mL. The “Plasma KC/GRO Concentration” value (KC/GRO in plasma; Day 1, Group 3, 10 mg/mL with 0.5% BA) was 521 ± 23.9 pg/mL, the “Plasma KC/GRO Concentration” value (KC/GRO in plasma; Day 1, Group 4, 10 mg/mL without BA, with 0.5% Tween 80) was 637 ± 120 pg/mL and the “Plasma KC/GRO Concentration” value (KC/GRO in plasma; Day 3, Group 3, 10 mg/mL with 0.5% BA) was 813 ± 61.4 pg/mL. For the same compound, the “Plasma KC/GRO Concentration” value (KC/GRO in plasma; Day 3, Group 4, 10 mg/mL without BA, with 0.5% Tween 80) was 541 ± 58.9 pg/mL, the “Plasma KC/GRO Concentration” value (KC/GRO in plasma; Day 5, Group 3, 10 mg/mL with 0.5% BA) was 480 ± 48.7 pg/mL and the “Plasma KC/GRO Concentration” value (KC/GRO in plasma; Day 5, Group 4, 10 mg/mL without BA, with 0.5% Tween 80) was 410 ± 86.0 pg/mL. For the same compound, the “Plasma KC/GRO Concentration” value (KC/GRO in plasma; Day 7, Group 3, 10 mg/mL with 0.5% BA) was 421 ± 57.2 pg/mL, the “Plasma KC/GRO Concentration” value (KC/GRO in plasma; Day 7, Group 4, 10 mg/mL without BA, with 0.5% Tween 80) was 451 ± 76.6 pg/mL and the “Plasma KC/GRO Concentration” value (KC/GRO in plasma; Day 14, Group 3, 10 mg/mL with 0.5% BA) was 400 ± 10.3 pg/mL. The “Plasma KC/GRO Concentration” value (KC/GRO in plasma; Day 14, Group 4, 10 mg/mL without BA, with 0.5% Tween 80) was 424 ± 76.2 pg/mL, the “Plasma KC/GRO Concentration” value (KC/GRO in plasma; Day 21, Group 3, 10 mg/mL with 0.5% BA) was 408 ± 83.3 pg/mL and the “Plasma KC/GRO Concentration” value (KC/GRO in plasma; Day 21, Group 4, 10 mg/mL without BA, with 0.5% Tween 80) was 347 ± 111 pg/mL. The “plasma KC/GRO levels, range” value (KC/GRO in plasma; Days 5-21, treated group with BA) was 400 to 480 pg/mL, the “plasma KC/GRO levels, range” value (KC/GRO in plasma; Days 5-21, treated group without BA) was 347 to 451 pg/mL and the EC50 [1] was 10.4 µM. It also gave an EC50 [2] of 0.356 to 0.629 µM.
